Source: patent publication US10681908B2, “Molecules having pesticidal utility, and intermediates, compositions, and processes, related thereto” (Dow AgroSciences LLC, priority 2016, dated 2020)

Experiments:
Type in all cases: in vivo
[1] = test system: Cabbage Looper (Trichoplusia ni, TRIPNI); test: Bioassay on Cabbage Looper (CL), 128-well diet tray assay; conditions: 168 h, 50 μg/cm^2 on artificial diet, second instar larvae, five to seven days, 25° C., read-out: CL % Control (or Mortality) rating
Method in brief: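 Percent mortality, averaged over eight wells, scored after five to seven days at 25° C. under 14:10 light-dark. Each well held 1–5 second-instar larvae on artificial diet treated with 50 μg/cm^2 test molecule applied in 90:10 acetone-water and dried.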

[2] = test system: Beet Armyworm (Spodoptera exigua, LAPHEG); test: Bioassay on Beet Armyworm (BAW), 128-well diet tray assay; conditions: 168 h, 50 μg/cm^2 on artificial diet, second instar larvae, five to seven days, 25° C., read-out: BAW % Control (or Mortality) rating
Method in brief: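 Mortality of second-instar larvae (one to five per well) was scored after five to seven days at 25 °C under 14:10 light-dark and averaged across eight wells. Each well's diet had received 50 μg/cm^2 test molecule from a 90:10 acetone-water solution, allowed to dry before infestation.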

[3] = test system: Green Peach Aphid (Myzus persicae, MYZUPE); test: Bioassay on Green Peach Aphid (GPA), foliar spray on infested cabbage seedlings; conditions: 72 h, 200 ppm foliar spray, three days, Abbott corrected % control, read-out: GPA % Control (or Mortality) rating
Experimental: Example B: Bioassays on Green Peach Aphid (Myzus Persicae, MYZUPE) (“GPA”)
Certain molecules disclosed in this document were tested against GPA using procedures described in the following example. In the reporting of the results, the “GPA & YFM Rating Table” was used (See Table Section).
Cabbage seedlings grown in 3-inch pots, with 2-3 small (3-5 cm) true leaves, were used as test substrate. The seedlings were infested with 20-50 GPA (wingless adult and nymph stages) one day prior to chemical application. Four pots with individual seedlings were used for each treatment. Test molecules (2 mg) were dissolved in 2 mL of acetone/methanol (1:1) solvent, forming stock solutions of 1000 ppm test molecule. The stock solutions were diluted 5× with 0.025% Tween 20 in water to obtain the solution at 200 ppm test molecule. A hand-held aspirator-type sprayer was used for spraying a solution to both sides of […] leaves until runoff. Reference plants (solvent check) were sprayed with the diluent only containing 20% by volume of acetone/methanol (1:1) solvent. Treated plants were held in a holding room for three days at approximately 25° C. and ambient relative humidity (RH) prior to grading. Evaluation was conducted by counting the number of live aphids per plant under a microscope. Percent Control was measured by using Abbott's correction formula (W. S. Abbott, “A Method of Computing the Effectiveness of an Insecticide” J. Econ. Entomol. 18 (1925), pp. 265-267) as follows. Corrected % Control=100*(X−Y)/X • where • X=No. of live aphids on solvent check plants and • Y=No. of live aphids on treated plants

[4] = test system: Yellow Fever Mosquito (Aedes aegypti, AEDSAE); conditions: about 1 day-old larvae, 3 days, room temperature, scored on mortality
Method in brief: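 Compounds from DMSO master plates (4000 ppm stock) diluted with 90:10 water:acetone, then about 1-day-old larvae in liver-powder water added. Held covered at room temperature for 3 days; each well scored for mortality.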

SMILES | mortality at 50 µg/cm2 [1] [%] | mortality at 50 µg/cm2 [2] [%] | mortality at 200 ppm [3] [%] | YFM % Control (or Mortality) rating [4]
C[C@H](CS(=O)(=O)CCC#N)NC(=O)c1ccc(/C(F)=C/C(c2cc(Cl)c(Cl)c(Cl)c2)C(F)(F)F)cc1C(F)(F)F (stereo partly drawn) [F123, N—((R)-1-((2-cyanoethyl)sulfonyl)propan-2-yl)-4-((Z)-1,4,4,4-tetrafluoro-3-(3,4,5-trichlorophenyl)but-1-en-1-yl)-2-(trifluoromethyl)benzamide] | 50 to 100 | 50 to 100 | 0 | A (80-100)
CCS(=O)(=O)C[C@@H](C)NC(=O)c1ccc(/C(F)=C/C(c2cc(Br)cc(Br)c2)C(F)(F)F)cc1C(F)(F)F (stereo partly drawn) [F42, 4-((Z)-3-(3,5-Dibromophenyl)-1,4,4,4-tetrafluorobut-1-en-1-yl)-N—((R)-1-(ethylsulfonyl)propan-2-yl)-2-(trifluoromethyl)benzamide] | 50 to 100 | 50 to 100 | 0 to 80 | A (80-100)
C[C@H](CS(=O)(=O)CC(F)(F)F)NC(=O)c1ccc(/C(F)=C/C(c2cc(Br)c(Cl)c(Br)c2)C(F)(F)F)cc1C(F)(F)F (stereo partly drawn) [F22, 4-((Z)-3-(3,5-Dibromo-4-chlorophenyl)-1,4,4,4-tetrafluorobut-1-en-1-yl)-N—((R)-1-((2,2,2-trifluoroethyl)sulfonyl)propan-2-yl)-2-(trifluoromethyl)benzamide] | 50 to 100 | 50 to 100 | 0 to 80 | A (80-100)
CCS(=O)(=O)C[C@@H](C)NC(=O)c1ccc(/C(F)=C/C(c2ccc(Cl)c(Cl)c2)C(F)(F)F)cc1C(F)(F)F (stereo partly drawn) [F46, 4-((Z)-3-(3,4-Dichlorophenyl)-1,4,4,4-tetrafluorobut-1-en-1-yl)-N—((R)-1-(ethylsulfonyl)propan-2-yl)-2-(trifluoromethyl)benzamide] | 50 to 100 | 50 to 100 | 0 to 80 | B (More than 0-Less than 80)
CCS(=O)(=O)C[C@@H](C)NC(=O)c1ccc(/C(F)=C/C(c2cc(Cl)c(F)c(Cl)c2)C(F)(F)F)cc1C(F)(F)F (stereo partly drawn) [F43, 4-((Z)-3-(3,5-Dichloro-4-fluorophenyl)-1,4,4,4-tetrafluorobut-1-en-1-yl)-N—((R)-1-(ethylsulfonyl)propan-2-yl)-2-(trifluoromethyl)benzamide] | 50 to 100 | 50 to 100 | 80 to 100 | A (80-100)
C[C@H](C[S+]([O-])CCC#N)NC(=O)c1ccc(/C(F)=C/C(c2cc(Cl)c(Cl)c(Cl)c2)C(F)(F)F)cc1C(F)(F)F (stereo partly drawn) [F122, N-((2R)-1-((2-Cyanoethyl)sulfinyl)propan-2-yl)-4-((Z)-1,4,4,4-tetrafluoro-3-(3,4,5-trichlorophenyl)but-1-en-1-yl)-2-(trifluoromethyl)benzamide] | 50 to 100 | 50 to 100 | 0 to 80 | A (80-100)
C[C@H](CSCC(F)(F)F)NC(=O)c1ccc(/C(F)=C/C(c2cc(Br)c(Cl)c(Br)c2)C(F)(F)F)cc1C(F)(F)F (stereo partly drawn) [F21, 4-((Z)-3-(3,5-Dibromo-4-chlorophenyl)-1,4,4,4-tetrafluorobut-1-en-1-yl)-N—((R)-1-((2,2,2-trifluoroethyl)thio)propan-2-yl)-2-(trifluoromethyl)benzamide] | 50 to 100 | 50 to 100 | 80 to 100 | A (80-100)
